The target in experiment [1] is FurX, Zn-dependent alcohol dehydrogenase from Cupriavidus necator JMP134 (Cupriavidus necator JMP134). As to the kind of experiment: SEC-MALS. A general note: Size exclusion chromatography separates by hydrodynamic size, large species first.
Experiment [2] has as its target T1, FurX (Cupriavidus pinatubonensis, UniProt Q46UZ9).
T1 sequence (Q46UZ9 1-342): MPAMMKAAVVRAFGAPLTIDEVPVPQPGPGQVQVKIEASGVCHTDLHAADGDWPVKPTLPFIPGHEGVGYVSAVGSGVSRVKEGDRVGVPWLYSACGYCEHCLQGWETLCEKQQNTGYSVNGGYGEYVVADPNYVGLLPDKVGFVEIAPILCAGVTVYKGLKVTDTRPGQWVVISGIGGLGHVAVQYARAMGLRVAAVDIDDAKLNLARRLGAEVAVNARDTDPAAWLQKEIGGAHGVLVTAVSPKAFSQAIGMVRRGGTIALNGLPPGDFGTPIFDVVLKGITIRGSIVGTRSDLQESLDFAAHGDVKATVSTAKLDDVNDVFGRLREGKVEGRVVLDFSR
Briefly: affinity measurement, method only in supplement. It is filed as binding.

The stoichiometry N is a count of units in the complex or per binding partner. Usually Kd stands for the constant that tells how readily two partners part at equilibrium. Read a low Kd as tighter binding.

In experiment [1], “FurX, Zn-dependent alcohol dehydrogenase from Cupriavidus necator JMP134 (enzyme)” registered a stoichiometry N of 4.

In experiment [2], `OCc1ccco1` [furfuryl alcohol] gave a Kd of more than 1000 µM. Same read-out and setting: then `NC(=O)c1ccc[n+]([C@@H]2O[C@H](COP(=O)(O)OP(=O)(O)OC[C@H]3O[C@@H](n4cnc5c(N)ncnc54)[C@H](O)[C@@H]3O)[C@@H](O)[C@H]2O)c1` [NAD^+], with 87 µM.
